From patent US10538554B2, “Peptides and uses therefor as antiviral agents” (priority 2015, dated 2020) come the findings set out here.

Where two headings read alike, the source gives them in different places. Bridge positions count the residues as written; N and C are the ends. Square brackets hold non-standard residues; d marks the D form. Peptide text beside a SMILES is read from it. Where only a bound is given, the exact number is not on record here.

In assay [1] the test system is H1N1 A1/Malaysia/302/1954. The conditions noted are these: A1/Malaysia/302/1954, 48 h.
Assay [2] relates to H3N8 A/Miami/2/63. The conditions noted are these: A/Miami/2/63, 48 h.
The subject of assay [3] is H3N2 A/HK/8/1968. The conditions noted are these: A/HK/8/1968, 48 h.
For assay [4], the system named is H9N2 A/Iran/16/2000. The conditions noted are these: 48 h.

Regarding `C[C@H](O)[C@H]1NC(=O)[C@H](N)CSSC[C@H](C(=O)O)NC(=O)[C@@H](CC(N)=O)NC(=O)[C@@H](Cc2c[nH]cn2)NC(=O)[C@@H](Cc2ccccc2)NC(=O)[C@@H](CCCNC(=N)N)NC(=O)[C@@H](CO)NC(=O)[C@@H](CCCCN)NC1=O` [PSP 7, H-ctksrfhnc-OH] (H-[dC][dT][dK][dS][dR][dF][dH][dN][dC]-OH; disulfide 1-9), in assay [1] (500 μM), the “% inhibition H1N1” value came out at 23.5%. Moreover, the “% inhibition H3N8” value in assay [2] (500 μM) came out at 76.3%. Also, the “% inhibition H3N2” value in assay [3] (500 μM) turned out to be 81.8%. Also, in assay [4] (500 μM), the “% inhibition H9N2” value is 31.8%.
Turning to `CC[C@@H](C)[C@H]1NC(=O)[C@@H](Cc2ccccc2)NC(=O)[C@@H](CCCNC(=N)N)NC(=O)[C@@H](CCC(=O)O)NC(=O)[C@@H](Cc2c[nH]c3ccccc23)NC(=O)[C@@H]([C@H](C)O)NC(=O)[C@H](NC(=O)[C@H](CCCCN)NC(=O)[C@H](CCCCN)NC(=O)[C@H](CCCNC(=N)N)NC(=O)[C@@H](N)CCCNC(=N)N)CSSC[C@H](C(=O)O)NC(=O)[C@@H](CC(N)=O)NC1=O` [PSP III B4, H-RRKKctwerfinc-OH] (H-RRKK[dC][dT][dW][dE][dR][dF][dI][dN][dC]-OH; disulfide 5-13), the “% inhibition H1N1” value in assay [1] (50 μM) is recorded as 81%. Further, in assay [2] (50 μM), the “% inhibition H3N8” value is reported as 91%. For the same compound, the “% inhibition H3N2” value in assay [3] (50 μM) is 100%. Besides, the “% inhibition H9N2” value in assay [4] (50 μM) was found to be 86%.
The corresponding values for `CC[C@@H](C)[C@H]1NC(=O)[C@@H](Cc2ccccc2)NC(=O)[C@@H](CCCNC(=N)N)NC(=O)[C@@H](CC(C)C)NC(=O)[C@@H](Cc2c[nH]c3ccccc23)NC(=O)[C@@H]([C@H](C)O)NC(=O)[C@H](NC(=O)[C@H](CCCCN)NC(=O)[C@H](CCCCN)NC(=O)[C@H](CCCNC(=N)N)NC(=O)[C@@H](N)CCCNC(=N)N)CSSC[C@H](C(=O)O)NC(=O)[C@@H](CC(N)=O)NC1=O` [PSP III B10, H-RRKKctwlrfinc-OH] (H-RRKK[dC][dT][dW][dL][dR][dF][dI][dN][dC]-OH; disulfide 5-13) are 92%, 96%, 100% and 90%.
As for `CC[C@@H](C)[C@H]1NC(=O)[C@@H](Cc2ccccc2)NC(=O)[C@@H](CCCNC(=N)N)NC(=O)[C@@H](CO)NC(=O)[C@@H](CCCCN)NC(=O)[C@@H]([C@H](C)O)NC(=O)[C@H](N)CSSC[C@H](C(=O)O)NC(=O)[C@@H](CC(N)=O)NC1=O` [PSP 8, H-ctksrfinc-OH] (H-[dC][dT][dK][dS][dR][dF][dI][dN][dC]-OH; disulfide 1-9), the “% inhibition H1N1” value in assay [1] (500 μM) is 79.4%. For the same compound, the “% inhibition H3N8” value in assay [2] (500 μM) is reported as 83.5%. Moreover, the “% inhibition H3N2” value in assay [3] (500 μM) stood at 90.9%. In assay [4] (500 μM), the “% inhibition H9N2” value is 90.9%.
For `CC[C@@H](C)[C@H]1NC(=O)[C@@H](Cc2ccccc2)NC(=O)[C@@H](CCCNC(=N)N)NC(=O)[C@@H](CCCCN)NC(=O)[C@@H](Cc2c[nH]c3ccccc23)NC(=O)[C@@H]([C@H](C)O)NC(=O)[C@H](NC(=O)[C@H](CCCCN)NC(=O)[C@H](CCCCN)NC(=O)[C@H](CCCNC(=N)N)NC(=O)[C@@H](N)CCCNC(=N)N)CSSC[C@H](C(=O)O)NC(=O)[C@@H](CC(N)=O)NC1=O` [PSP III B9, H-RRKKctwkrfinc-OH] (H-RRKK[dC][dT][dW][dK][dR][dF][dI][dN][dC]-OH; disulfide 5-13), the “% inhibition H1N1” value in assay [1] (50 μM) was 90%. Further, the “% inhibition H3N8” value in assay [2] (50 μM) came to 96%. In addition, in assay [3] (50 μM), the “% inhibition H3N2” value was 96%. For the same compound, the “% inhibition H9N2” value in assay [4] (50 μM) came to 90%.
For the compound `C[C@H](O)[C@H]1NC(=O)[C@H](N)CSSC[C@H](C(=O)O)NC(=O)[C@@H](CC(N)=O)NC(=O)[C@@H](CC(=O)O)NC(=O)[C@@H](Cc2ccccc2)NC(=O)[C@@H](CCCNC(=N)N)NC(=O)[C@@H](CO)NC(=O)[C@@H](CCCCN)NC1=O` [PSP 3, H-ctksrfdnc-OH] (H-[dC][dT][dK][dS][dR][dF][dD][dN][dC]-OH; disulfide 1-9), the “% inhibition H1N1” value in assay [1] (500 μM) is on record as 29.4%. Besides, the “% inhibition H3N8” value in assay [2] (500 μM) is given as 67%. Moreover, in assay [3] (500 μM), the “% inhibition H3N2” value is given as 74.1%. Also, the “% inhibition H9N2” value in assay [4] (500 μM) is reported as more than 50%.
For the compound `CC[C@@H](C)[C@H]1NC(=O)[C@@H](Cc2ccccc2)NC(=O)[C@@H](CCCNC(=N)N)NC(=O)[C@@H](CS)NC(=O)[C@@H](Cc2c[nH]c3ccccc23)NC(=O)[C@@H]([C@H](C)O)NC(=O)[C@H](NC(=O)[C@H](CCCCN)NC(=O)[C@H](CCCCN)NC(=O)[C@H](CCCNC(=N)N)NC(=O)[C@@H](N)CCCNC(=N)N)CSSC[C@H](C(=O)O)NC(=O)[C@@H](CC(N)=O)NC1=O` [PSP III B2, H-RRKKctwcrfinc-OH] (H-RRKK[dC][dT][dW][dC][dR][dF][dI][dN][dC]-OH; disulfide 5-13), in assay [1] (50 μM), the “% inhibition H1N1” value is on record as 71%. The “% inhibition H3N8” value in assay [2] (50 μM) was determined as 87%. The “% inhibition H3N2” value in assay [3] (50 μM) is on record as 96%. The “% inhibition H9N2” value in assay [4] (50 μM) is given as 74%.
As for `CC[C@@H](C)[C@H]1NC(=O)[C@@H](Cc2ccccc2)NC(=O)[C@@H](CCCNC(=N)N)NC(=O)[C@@H](CO)NC(=O)[C@@H](Cc2c[nH]c3ccccc23)NC(=O)[C@@H]([C@H](C)O)NC(=O)[C@H](NC(=O)[C@H](CCCCN)NC(=O)[C@H](CCCCN)NC(=O)[C@H](CCCNC(=N)N)NC(=O)[C@@H](N)CCCNC(=N)N)CSSC[C@H](C(=O)O)NC(=O)[C@@H](CC(N)=O)NC1=O` [PSP III B16, H-RRKKctwsrfinc-OH] (H-RRKK[dC][dT][dW][dS][dR][dF][dI][dN][dC]-OH; disulfide 5-13), in assay [1] (50 μM), the “% inhibition H1N1” value is 88%. In addition, the “% inhibition H3N8” value in assay [2] (50 μM) turned out to be 96%; in assay [2] (500 μM), 100%. The “% inhibition H3N2” value in assay [3] (50 μM) is reported as 96%. Besides, the “% inhibition H9N2” value in assay [4] (50 μM) is reported as 88%.
In the case of `CC[C@@H](C)[C@H]1NC(=O)[C@@H](Cc2ccccc2)NC(=O)[C@@H](CCCNC(=N)N)NC(=O)CNC(=O)[C@@H](Cc2c[nH]c3ccccc23)NC(=O)[C@@H]([C@H](C)O)NC(=O)[C@H](NC(=O)[C@H](CCCCN)NC(=O)[C@H](CCCCN)NC(=O)[C@H](CCCNC(=N)N)NC(=O)[C@@H](N)CCCNC(=N)N)CSSC[C@H](C(=O)O)NC(=O)[C@@H](CC(N)=O)NC1=O` [PSP III B6, H-RRKKctwGrfinc-OH] (H-RRKK[dC][dT][dW]G[dR][dF][dI][dN][dC]-OH; disulfide 5-13), the “% inhibition H1N1” value in assay [1] (50 μM) is listed as 85%. In addition, the “% inhibition H3N8” value in assay [2] (50 μM) was determined as 96%. Besides, the “% inhibition H3N2” value in assay [3] (50 μM) amounted to 100%. For the same compound, in assay [4] (50 μM), the “% inhibition H9N2” value was found to be 93%.
The corresponding values for `CC[C@@H](C)[C@H]1NC(=O)[C@@H](Cc2ccccc2)NC(=O)[C@@H](CCCNC(=N)N)NC(=O)[C@@H](CCCNC(=N)N)NC(=O)[C@@H](Cc2c[nH]c3ccccc23)NC(=O)[C@@H]([C@H](C)O)NC(=O)[C@H](NC(=O)[C@H](CCCCN)NC(=O)[C@H](CCCCN)NC(=O)[C@H](CCCNC(=N)N)NC(=O)[C@@H](N)CCCNC(=N)N)CSSC[C@H](C(=O)O)NC(=O)[C@@H](CC(N)=O)NC1=O` [PSP III B15, H-RRKKctwrrfinc-OH] (H-RRKK[dC][dT][dW][dR][dR][dF][dI][dN][dC]-OH; disulfide 5-13) are 83%, 91%, 100% and 84%.
Regarding `C[C@H](O)[C@H]1NC(=O)[C@H](N)CSSC[C@H](C(=O)O)NC(=O)[C@@H](CC(N)=O)NC(=O)[C@@H](CS)NC(=O)[C@@H](Cc2ccccc2)NC(=O)[C@@H](CCCNC(=N)N)NC(=O)[C@@H](CO)NC(=O)[C@@H](CCCCN)NC1=O` [PSP 2, H-ctksrfcnc-OH] (H-[dC][dT][dK][dS][dR][dF][dC][dN][dC]-OH; disulfide 1-9), in assay [1] (500 μM), the “% inhibition H1N1” value is recorded as 67.6%. Further, the “% inhibition H3N8” value in assay [2] (500 μM) was 65%. For the same compound, the “% inhibition H3N2” value in assay [3] (500 μM) was 18.5%.
The corresponding values for `C[C@H](O)[C@H]1NC(=O)[C@H](N)CSSC[C@H](C(=O)O)NC(=O)[C@@H](CC(N)=O)NC(=O)[C@@H](CCCNC(=N)N)NC(=O)[C@@H](Cc2ccccc2)NC(=O)[C@@H](CCCNC(=N)N)NC(=O)[C@@H](CO)NC(=O)[C@@H](CCCCN)NC1=O` [PSP 15, H-ctksrfrnc-OH] (H-[dC][dT][dK][dS][dR][dF][dR][dN][dC]-OH; disulfide 1-9) are 11.5%, 61.9% and 3.7%.
The corresponding values for `C[C@H](O)[C@H]1NC(=O)[C@H](N)CSSC[C@H](C(=O)O)NC(=O)[C@@H](CC(N)=O)NC(=O)[C@@H](Cc2c[nH]c3ccccc23)NC(=O)[C@@H](Cc2ccccc2)NC(=O)[C@@H](CCCNC(=N)N)NC(=O)[C@@H](CO)NC(=O)[C@@H](CCCCN)NC1=O` [PSP 19, H-ctksrfwnc-OH] (H-[dC][dT][dK][dS][dR][dF][dW][dN][dC]-OH; disulfide 1-9) are 28.8%, 78.4% and 92.6%.
The corresponding values for `C[C@H](O)[C@H]1NC(=O)[C@H](N)CSSC[C@H](C(=O)O)NC(=O)[C@@H](CC(N)=O)NC(=O)[C@@H](CCC(=O)O)NC(=O)[C@@H](Cc2ccccc2)NC(=O)[C@@H](CCCNC(=N)N)NC(=O)[C@@H](CO)NC(=O)[C@@H](CCCCN)NC1=O` [PSP 4, H-ctksrfenc-OH] (H-[dC][dT][dK][dS][dR][dF][dE][dN][dC]-OH; disulfide 1-9) are 52.9%, 64% and 22.7%.
